The source of these data is patent publication EP4620956A1, “PARP1 INHIBITORS” (Zhejiang Yangli Pharmaceutical Technology Co., Ltd., priority 2022, dated 2024).

As usually defined, the IC50 is the concentration needed to halve the response being measured. In general, EC50 refers to the concentration at which the effect is half-maximal. The term clearance denotes the rate of elimination divided by the concentration. In general, half-life refers to how long it takes for the measured level to halve. Read a high half-life as slow decline. What is called bioavailability is the share of a dose that reaches the circulation, judged against a reference dose that is usually intravenous. Lower therefore signals little systemic uptake.

Read-outs that look alike come from different tables or passages of the source.

Data set [1] relates to A549 WT. The data set is described as follows: Cellular PARylation inhibition, high-content imaging, A549 WT. The settings on record: Homo sapiens, PARylation at the cellular level. The class given is cell-based. As to the method: The inhibitory effect of the compounds on PARP1/PARP2 enzyme activity at the cellular level was detected using high-content imaging. A549 WT, PARP1-KO and PARP2-KO cell lines were established in-house, and the cells were revived. After the cells were stable, a sufficient number of cells were collected and 100 µL of the cell suspension was seeded into a 96-well plate. The next day, the example compounds with serially diluted concentrations were added. […] The plate was incubated for 1.5 hours (A549 WT and PARP2-KO cell lines) or 2 hours (PARP1-KO cell line). After removing the supernatant, 0.4 mM H2O2 was added and incubation was carried out for 10 minutes (A549 WT and PARP2-KO cell lines) or 1.5 mM H2O2 was added and incubation was carried out for 15 minutes (PARP1-KO cell line) to induce extensive cellular DNA damage. After removing the supernatant, the cells were fixed with 4% paraformaldehyde for 20 minutes, followed by treatment with 0.5% Triton X-100 for 20 minutes to increase the permeability of the cell membrane. After that, the cells were incubated with 3% BSA for 1 hour to prevent non-specific binding. […] The cell nuclei were stained for 30 minutes by adding 50 µL DAPI (invitrogen, R37606). After washing twice with PBS, images were acquired on OPERETTA CLS™ (PE) by scanning the cells under a 20x water objective lens in non-confocal mode, with 5 fields of view captured per well. […] The inhibition rate was calculated using the fluorescence values from the Max and Min wells, and the dose-response curve was fitted using the analysis software GraphPad Prism 5 to obtain the IC50 value of each compound for the enzyme activity.

In data set [2] the target is T1, PARP2 (Homo sapiens, UniProt Q9UGN5).
T1 construct: purchased BPS 80502
Nature of the data set: Inhibition of PARP2 enzyme activity (chemiluminescence). The class given is biochemical.

The test system of data set [3] is DLD-1 BRCA2^-/-. The data set is described as follows: Anti-proliferative activity (CellTiter-Glo, 7 days), DLD-1 BRCA2-/-. Format: cell-based, human. The settings on record: for BRCA2 mutation/WT selectivity fold: DLD-1 WT vs DLD-1 BRCA2^-/-; for IC50: Homo sapiens, DLD-1, 168 h, BRCA2-mutated, 7 days.
Data set [4] concerns the target T2, PARP1 (Homo sapiens, UniProt P09874).
T2 construct: purchased BPS 80501
Nature of the data set: DNA trapping capability of PARP1 (HTRF). The class given is biochemical. On the technique in general: In TR-FRET formats the signal depends on donor and acceptor labels being close together.

The target of data set [5] is T1, PARP2. The data set is described as follows: DNA trapping capability of PARP2 (HTRF). Format: biochemical.
In data set [6] the test system is A549 PARP2-KO cell line. The data set is described as follows: Cellular PARylation inhibition, high-content imaging, PARP2-KO. Format: cell-based. The settings on record: for IC50: Homo sapiens.
In data set [7] the test system is MDA-MB-436. The data set is described as follows: Anti-proliferative activity (CellTiter-Glo, 7 days), MDA-MB-436. The class given is cell-based, human. The settings on record: for IC50: Homo sapiens, MDA-MB-436, 168 h, BRCA1-mutated, 7 days, read-out: MDA-MB-436 IC50; for BRCA1 mutation/WT selectivity fold: MDA-MB-231 vs MDA-MB-436. Background: ATP-based viability assays read luminescence as a measure of living cells.

Data set [8] has as its system DLD-1 WT. Nature of the data set: Anti-proliferative activity (CellTiter-Glo, 7 days), DLD-1 WT. The class given is cell-based, human. The settings on record: for inhibition on cell proliferation at the highest concentration: BRCA2-normal DLD-1 cell line, 10 µM; for IC50: Homo sapiens, DLD-1, 168 h, BRCA2-normal, 7 days. As to the method:
The anti-proliferation experiment of the compounds on tumour cells adopted the most widely used ATP concentration-based detection method at present. MDA-MB-231 and MDA-MB-436 cell lines were obtained from ATCC, DLD-1 human colourectal adenocarcinoma epithelial cells and DLD-1 BRCA2^-/- cells were obtained from Horizon, and the cells were revived. After the cells were stable, the cells were collected. When the viable cell count exceeded 90%, 450-500 cells were seeded into a 384-well plate. The next day, the example compounds with serially diluted concentrations were added. Only buffer was added to the Max well, and 50 µM AZD2281 was added to the Min well. The plate was incubated for 7 days, and on the eighth day, CellTiter-Glo® reagent (Promega, G7573) was added. The plate was incubated at room temperature for 30 minutes, and the values were read on Envision (PE). The inhibition rate was calculated using the fluorescence values from the Max and Min wells, and the dose-response curve was fitted using the analysis software GraphPad Prism 5 to obtain the IC50 value of each compound for the enzyme activity.

Data set [9] deals with MDA-MB-231. The data set is described as follows: Anti-proliferative activity (CellTiter-Glo, 7 days), MDA-MB-231. Format: cell-based, human. The settings on record: for IC50: Homo sapiens; for inhibition on cell proliferation at the highest concentration: 10 µM.
Data set [10] concerns A549 PARP1-KO cell lines. Nature of the data set: Cellular PARylation inhibition, high-content imaging, PARP1-KO. The class given is cell-based. The settings on record: for inhibition on the enzyme activity at the highest concentration: A549 PARP1-KO cell lines, 40 µM; for IC50: Homo sapiens, A549, PARylation at the cellular level.
Data set [11] addresses T2, PARP1. The data set is described as follows: Inhibition of PARP1 enzyme activity (chemiluminescence). The settings on record: for PARP1/2 selectivity fold: PARP2 vs PARP1. The class given is biochemical.
Data set [12] is described as follows: Pharmacokinetic study of single administration in mice. The settings on record: CD-1 mice. The class given is in vivo. As to the method: Male CD-1 mice were used as test animals. The plasma drug concentrations of the compounds were determined and the pharmacokinetic parameters were evaluated after a single administration. Healthy adult male CD-1 mice were selected. The candidate compound was added to 10% DMSO, vortexed and sonicated. After complete dissolution, 30% PEG400 was added, followed by vortexing and sonication, and 60% double-distilled water was added to prepare a clear solution for later use. After the mice were intravenously injected at a dose of 2 mg/kg and orally administered at a dose of 10 mg/kg, whole blood was collected at 5 minutes, 15 minutes, 30 minutes, 1 hour, 2 hours, 4 hours, 8 hours, and 24 hours after administration to prepare plasma. After sample treatment, the drug concentration was analysed by LC-MS/MS method, and the pharmacokinetic parameters were calculated.

Setting [13] is: A549, PARylation at the cellular level, read-out: PARP2-KO IC50.
Setting [14] is: PARylation at the cellular level.
Where [15] appears, read: MDA-MB-231, 168 h, BRCA1-normal, 7 days, read-out: MDA-MB-231 IC50.
Setting [16] is: BRCA1-normal MDA-MB-231 cell line.
The mark [17] stands for this setting: male, mouse, plasma, IV, 2 mg/kg.
Setting [18] is: male, mouse, plasma, PO, 10 mg/kg.

T1 sequence (Q9UGN5 whole entry): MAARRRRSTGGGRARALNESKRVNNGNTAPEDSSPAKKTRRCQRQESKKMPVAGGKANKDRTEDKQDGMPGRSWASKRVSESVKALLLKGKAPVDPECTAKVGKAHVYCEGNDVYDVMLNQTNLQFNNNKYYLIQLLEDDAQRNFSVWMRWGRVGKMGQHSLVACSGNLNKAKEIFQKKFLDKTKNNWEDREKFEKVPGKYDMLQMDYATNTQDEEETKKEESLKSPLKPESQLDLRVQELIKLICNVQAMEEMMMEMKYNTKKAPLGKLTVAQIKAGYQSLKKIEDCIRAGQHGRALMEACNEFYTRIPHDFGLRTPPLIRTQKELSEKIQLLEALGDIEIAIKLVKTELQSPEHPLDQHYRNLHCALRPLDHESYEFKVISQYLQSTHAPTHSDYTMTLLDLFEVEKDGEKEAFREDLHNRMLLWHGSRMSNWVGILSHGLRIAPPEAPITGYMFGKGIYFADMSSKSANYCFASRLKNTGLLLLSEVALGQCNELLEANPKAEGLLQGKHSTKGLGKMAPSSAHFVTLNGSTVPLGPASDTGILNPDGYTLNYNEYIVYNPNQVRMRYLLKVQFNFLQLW
T2 sequence (P09874 whole entry): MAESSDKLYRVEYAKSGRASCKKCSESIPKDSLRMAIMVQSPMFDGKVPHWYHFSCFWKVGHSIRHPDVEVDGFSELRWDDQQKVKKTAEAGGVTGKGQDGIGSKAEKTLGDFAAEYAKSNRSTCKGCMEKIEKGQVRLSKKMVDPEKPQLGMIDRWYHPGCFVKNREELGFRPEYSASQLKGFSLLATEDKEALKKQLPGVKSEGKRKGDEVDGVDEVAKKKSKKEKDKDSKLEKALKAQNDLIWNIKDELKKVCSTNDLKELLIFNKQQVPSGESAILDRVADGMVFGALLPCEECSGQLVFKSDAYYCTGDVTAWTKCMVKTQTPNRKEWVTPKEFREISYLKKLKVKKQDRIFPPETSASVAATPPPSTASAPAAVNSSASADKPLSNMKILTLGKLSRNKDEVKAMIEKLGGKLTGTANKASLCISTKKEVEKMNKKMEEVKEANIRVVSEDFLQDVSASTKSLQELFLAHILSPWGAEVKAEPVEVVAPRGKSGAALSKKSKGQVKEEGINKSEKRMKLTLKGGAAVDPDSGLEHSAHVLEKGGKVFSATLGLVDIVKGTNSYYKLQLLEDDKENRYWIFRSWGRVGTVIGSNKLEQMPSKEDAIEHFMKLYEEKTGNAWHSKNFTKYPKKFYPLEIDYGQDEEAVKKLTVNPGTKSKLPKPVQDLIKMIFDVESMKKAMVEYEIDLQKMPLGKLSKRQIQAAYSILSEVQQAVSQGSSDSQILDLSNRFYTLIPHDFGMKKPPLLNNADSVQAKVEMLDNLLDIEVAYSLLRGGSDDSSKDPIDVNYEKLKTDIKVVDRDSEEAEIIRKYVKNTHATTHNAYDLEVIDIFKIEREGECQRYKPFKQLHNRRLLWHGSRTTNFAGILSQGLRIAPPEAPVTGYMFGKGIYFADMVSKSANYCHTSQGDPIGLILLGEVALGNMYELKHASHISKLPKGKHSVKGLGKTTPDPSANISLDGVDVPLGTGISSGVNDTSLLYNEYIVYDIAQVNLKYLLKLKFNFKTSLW

For the compound `CCc1c(N)c2ncc(CN3CCN(c4ccc(C(=O)NC)nc4F)CC3)cc2[nH]c1=O` [Example 3, 5-(4-((8-Amino-7-ethyl-6-oxo-5,6-dihydro-1,5-naphthyridin-3-yl)methyl)piperazin-1-yl)-6-fluoro-N-methylpicolinamide], the IC50 in [1] was 0.0059 µM; in data set [2], 0.0087 µM; in [3] it was 0.00507 µM; in data set [6] (setting [13]), 0.0162 µM; in data set [7], 0.00127 µM; in data set [8] it was > 10 µM. Further, the IC50 was 7.4 µM in data set [9] (setting [15]); 7.4 µM in [9] (BRCA1-normal MDA-MB-231 cell line, read-out: IC50); > 40 µM in [10]; 0.00041 µM in data set [11]. Also, the “BRCA2 mutation/WT selectivity fold” value in data set [3] was >1,972 fold. Moreover, the EC50 in data set [4] amounted to 0.00387 µM; in data set [5], 0.249 µM. For the same compound, the PARP1/2 selectivity fold in data set [4] is given as 64 fold; in data set [11], 21 fold. In data set [6] (setting [14]), the “PARP1 KO/PARP2 KO selectivity fold” value is reported as >2468 fold. Moreover, the “BRCA1 mutation/WT selectivity fold” value in data set [7] is 5,828 fold. For the same compound, in [8], the “inhibition on cell proliferation at the highest concentration” value (from here on “inhibition on cell proliferation”) is “no detectable inhibition”. Also, the “inhibition on the enzyme activity at the highest concentration” value in [10] is reported as “no detectable inhibition”.

`CCc1c(N)c2ncc(CN3CCN(c4ccc(C(=O)NOC)nc4F)CC3)cc2[nH]c1=O` [Example 2, 5-(4-((8-Amino-7-ethyl-6-oxo-5,6-dihydro-1,5-naphthyridin-3-yl)methyl)piperazin-1-yl)-6-fluoro-N-methoxypicolinamide]: the IC50 in [1] is 0.0105 µM; in [2], 0.017 µM; in data set [3], 0.00862 µM; in [6] (setting [13]) it was 0.0617 µM; in [7], 0.00574 µM; in data set [8] it was > 10 µM. Further, the values for the 50% inhibitory concentration (IC50) in data set [9] (setting [15]), in data set [10] and in [11] were > 10 µM, > 40 µM and 0.00039 µM, respectively. In data set [3], the “BRCA2 mutation/WT selectivity fold” value is given as >1,162 fold. The concentration for a half-maximal effect (EC50) in data set [4] came out at 0.00373 µM; in data set [5], 0.338 µM. Further, the “PARP1 KO/PARP2 KO selectivity fold” value in [6] (setting [14]) is on record as >648 fold. Further, in data set [7], the “BRCA1 mutation/WT selectivity fold” value is >1,742 fold. Moreover, the “inhibition on cell proliferation” value in [8] and in data set [9] (setting [16]) was “no detectable inhibition” each time. For the same compound, the “inhibition on the enzyme activity at the highest concentration” value in data set [10] is reported as “no detectable inhibition”. The PARP1/2 selectivity fold in data set [11] amounted to 44 fold.

On to `CCc1c(N)c2ncc(CN3CCN(c4ccc(C(=O)NC)nc4)CC3)cc2[nH]c1=O` [Example 1, 5-(4-((8-Amino-7-ethyl-6-oxo-5,6-dihydro-1,5-naphthyridin-3-yl)methyl)piperazin-1-yl)-N-methylpicolinamide], for which the IC50 in [1] was 0.0144 µM; in [2] it was 0.0528 µM; in data set [3], 0.0186 µM; in [6] (A549, read-out: PARP2-KO IC50), 0.0722 µM; in [7], 0.0164 µM; in data set [8], > 10 µM. For the same compound, the values for the IC50 in data set [9] (setting [15]), in [10] and in data set [11] were > 10 µM, 47.7 µM and 0.00049 µM, respectively. Further, the Exposure inf was found to be 38.222 µg·h/mL in data set [12] (IV, 2 mg/kg) and 191.246 µg·h/mL in data set [12] (PO, 10 mg/kg). Besides, the Exposure last in data set [12] (IV, 2 mg/kg) was found to be 38.128 µg·h/mL; in data set [12] (PO, 10 mg/kg), 189.56 µg·h/mL. For the same compound, the Peak concentration in [12] (PO, 10 mg/kg) is given as 15700 ng/mL. Further, in data set [12] (PO, 10 mg/kg), the Time to peak worked out at 2 h. This compound also gave a clearance in data set [12] (setting [17]) of 0.872 mL/min/kg. For the same compound, the results for the half-life in data set [12] (setting [17]) and in data set [12] (setting [18]) were 2.81 h and 3.51 h, respectively. In addition, the Vd in data set [12] (male, mouse, plasma, IV, 2 mg/kg, read-out: Apparent volume of distribution) turned out to be 0.218 L/kg. Besides, the bioavailability in data set [12] (setting [18]) amounted to 100%. Besides, in data set [3], the “BRCA2 mutation/WT selectivity fold” value is on record as >538 fold. Besides, the 50% effective concentration (EC50) in data set [4] was determined as 0.00178 µM; in data set [5] it was 0.168 µM. The “PARP1 KO/PARP2 KO selectivity fold” value in data set [6] (setting [14]) stood at 660 fold. The “BRCA1 mutation/WT selectivity fold” value in [7] was >608 fold. In addition, the “inhibition on cell proliferation” value in [8] and in [9] (setting [16]) was “no detectable inhibition” each time. The PARP1/2 selectivity fold in [11] stood at 108 fold.
